Where two headings read alike, the source gives them in different places.
Experiments:
α5β3γ2 GABAA R = α5β3γ2 GABAA R (Homo sapiens, UniProt P18507+P31644); assay: Binding activity on GABAA R: inhibition of [3H]Ro15-1788 binding, α5 containing receptor
Description: Tissue culture and Membrane Preparation: The binding was performed on Ltk cells stably expressing GABAA R: […], α2β3γ2, α3β3γ2 and α5β3γ2 (provided by Merck Co., NJ, USA). Cells were seeded in 100 mm culture plates in DMEM/F12 medium containing 10% serum and antibiotics in 5% CO2 and allowed to grow for 1-2 days. GABAAR expression was then induced by dexamethasone as follows: 0.5 μM for 1 day for α5 containing and 2 μM for 3 days for α1, α2 and α3 containing GABAARs. After induction, cells were collected by scraping into Dulbecco's Phosphate buffered saline (DPBS, pH 7.4, Invitrogen, Carlsbad, CA, USA) and centrifuged at 150×g for 10 min. The pellet was washed twice by re-suspension and centrifugation. The cell pellets from at least 5 different preps were combined, suspended in the binding assay buffer (50 mM KH2PO4; 1 mM EDTA; 0.2 M KCl, pH 7.4) and membranes prepared by sonication (3-5 times, 30 sec) using Branson Sonifier 150 (G. Heinmann, Germany). Protein content was determined using BCA assay (Bio-Rad Labs, Reinach, Switzerland) with Bovine Serum Albumin (Sigma Aldrich, St. Louis, MO, USA) as the standard. Aliquots were prepared and stored at −20° C. for further use in binding assays.
Ligand Binding: Saturation binding curves were obtained by incubating membranes with increasing concentrations (0.01-8 nM) of [^3H]Rol5-1788 (Flumazepil, 75-85 Ci/mmol, PerkinElmer, MA, USA), with nonspecific binding measured in the presence of 10 μM diazepam.
All binding assays were performed for 1 h at 4° C. in assay buffer. The total assay volume was 0.5 ml containing 0.2 mg/ml protein for α5 and 0.4 mg/ml for α1, α2, and α3 containing GABAAR membranes. Incubations were terminated by filtration through GF/B filters using a 24-Cell Harvestor (Brandel, Gaithersburg, MD, USA) followed by 3 washes with ice-cold assay buffer. Filters were transferred to scintillation vials, 5 ml scintillation liquid added, vortex-mixed and kept in dark. Next day, radioactivity was obtained using a scintillation counter (Beckman Coulter, Brea, CA, USA). All assays were performed in triplicate.
Data Analyses: Saturation and inhibition curves were obtained using GraphPad Prism software (GraphPad Software, Inc., CA, USA).

GABAA R (α5β2γ2) = target: T1, GABAA R (α5β2γ2) (Homo sapiens, UniProt P18507+P31644); assay: Positive allosteric modulator activity: potentiation of EC20 GABA current in oocytes; assay type: cell-based
T1 construct: expressed in transfected cells
Description: On day 1, 1 ng/32 nL of GABAA α5β2γ2 cDNA was injected into one oocyte. Test starts on day 2. The cDNA injected to the oocytes was a mix of alpha, beta and gamma, their ratio is 1:1:10 (by weight) and the total weight of the mixed 3 subunits to be injected in one oocyte was 1 ng in 32 nl volume. The injected oocytes can also be tested on day 3. In such case, the cDNA amount injected to the oocytes should be reduced by 20%.
Compounds of the present disclosure were tested using the following procedures.
8 oocytes were placed in 8 chambers of OpusXpress and superfused with Modified Barth's Saline (MBS) at 3 mL/min. Glass electrodes back-filled with 3M KCl (0.5-3 megaohms) were used. Membrane potential of oocytes was voltage-clamped at −60 mV. • 2).
Control Test (Diazepam or Methyl 3,5-Diphenylpyridazine-4-Carboxylate) • 1). New oocytes was used to run new test. • 2). […] Oocytes were washed with MBS for 5-10 min. • 4). […] Itest was divided by IGABA to obtain potentiation (%).
Test Compounds at Multiple Doses • 1). Repeat the above steps 1), 2) and 3) in the control test. • 2). […] Divide Itest by IGABA to obtain potentiation (%). • 3). Discard all tested oocytes, new oocytes were used and the above steps 1) and 2) were repeated to test second concentration of the same compound. Each oocyte was used for only one concentration test for a single test compound. The steps were repeated for other test compounds.

[1] = read-out: GABA α5 Functional Data: potentiation, @ 100 nM, EC20 GABA, ranges of the column heads
[2] = ranges of the column heads, [3H]Ro15-1788, Ltk cell membranes
[3] = read-out: GABA α5 Functional Data: potentiation

T1 sequence (P31644 32-462): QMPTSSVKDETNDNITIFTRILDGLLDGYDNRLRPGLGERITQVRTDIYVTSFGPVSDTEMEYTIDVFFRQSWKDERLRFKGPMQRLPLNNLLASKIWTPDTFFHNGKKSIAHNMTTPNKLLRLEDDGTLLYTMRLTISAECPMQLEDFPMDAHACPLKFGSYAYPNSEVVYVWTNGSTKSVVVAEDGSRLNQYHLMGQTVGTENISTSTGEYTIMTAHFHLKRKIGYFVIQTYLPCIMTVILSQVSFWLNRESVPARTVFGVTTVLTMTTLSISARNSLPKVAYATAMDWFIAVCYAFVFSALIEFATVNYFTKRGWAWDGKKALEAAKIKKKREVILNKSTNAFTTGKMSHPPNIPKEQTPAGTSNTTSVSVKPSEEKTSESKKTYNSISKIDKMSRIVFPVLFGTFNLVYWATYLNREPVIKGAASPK
T1 sequence (P47870 25-512 partner limits assumed): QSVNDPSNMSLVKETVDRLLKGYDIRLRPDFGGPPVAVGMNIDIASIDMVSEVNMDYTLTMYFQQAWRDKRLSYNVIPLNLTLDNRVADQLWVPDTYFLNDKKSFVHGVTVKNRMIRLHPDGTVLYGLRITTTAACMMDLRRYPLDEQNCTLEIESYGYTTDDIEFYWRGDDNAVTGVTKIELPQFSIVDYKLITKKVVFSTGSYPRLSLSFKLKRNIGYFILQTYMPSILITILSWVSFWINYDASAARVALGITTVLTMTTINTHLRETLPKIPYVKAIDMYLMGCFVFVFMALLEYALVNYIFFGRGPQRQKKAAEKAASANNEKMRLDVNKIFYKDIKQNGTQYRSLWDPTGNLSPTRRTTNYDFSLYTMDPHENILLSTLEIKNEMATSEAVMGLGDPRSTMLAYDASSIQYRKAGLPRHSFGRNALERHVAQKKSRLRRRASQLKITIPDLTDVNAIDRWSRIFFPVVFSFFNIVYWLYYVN
T1 sequence (P18507 40-475): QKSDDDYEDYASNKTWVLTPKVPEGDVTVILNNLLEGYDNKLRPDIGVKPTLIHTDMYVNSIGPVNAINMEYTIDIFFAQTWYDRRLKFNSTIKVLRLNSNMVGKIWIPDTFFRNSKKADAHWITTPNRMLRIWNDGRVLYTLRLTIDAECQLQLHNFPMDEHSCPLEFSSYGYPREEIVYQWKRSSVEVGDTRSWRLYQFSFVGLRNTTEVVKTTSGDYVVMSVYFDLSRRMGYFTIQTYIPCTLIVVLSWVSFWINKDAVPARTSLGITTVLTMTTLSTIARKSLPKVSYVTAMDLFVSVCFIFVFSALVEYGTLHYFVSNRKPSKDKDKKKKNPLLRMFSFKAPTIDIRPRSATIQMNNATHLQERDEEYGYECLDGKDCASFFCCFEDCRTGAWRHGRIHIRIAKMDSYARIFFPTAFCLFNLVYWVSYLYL
Sequence of α5β3γ2 GABAA R (P31644 32-462): as the sequence (P31644 32-462) above
Sequence of α5β3γ2 GABAA R (P28472 26-473 partner): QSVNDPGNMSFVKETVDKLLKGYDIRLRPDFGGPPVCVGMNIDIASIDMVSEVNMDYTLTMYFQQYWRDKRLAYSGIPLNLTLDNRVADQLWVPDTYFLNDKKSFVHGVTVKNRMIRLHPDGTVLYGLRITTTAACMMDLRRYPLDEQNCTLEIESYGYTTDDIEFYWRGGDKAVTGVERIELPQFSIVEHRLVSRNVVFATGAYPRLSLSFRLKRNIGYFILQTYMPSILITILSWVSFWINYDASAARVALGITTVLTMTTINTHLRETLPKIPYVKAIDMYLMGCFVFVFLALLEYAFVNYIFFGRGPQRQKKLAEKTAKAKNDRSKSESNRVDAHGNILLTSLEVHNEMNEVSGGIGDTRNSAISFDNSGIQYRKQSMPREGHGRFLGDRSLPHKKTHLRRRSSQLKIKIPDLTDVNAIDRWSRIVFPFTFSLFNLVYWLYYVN
Sequence of α5β3γ2 GABAA R (P18507 40-475): as the sequence (P18507 40-475) above

Structure (SMILES) | Ki (α5β3γ2 GABAA R) [µM] | further results
CCn1cc2c(n1)-c1cc(OC)ccc1-n1cnc(-c3nc(CN4CCCC4)no3)c1C2 [Compound 267] | < 0.1 | activation at 0.1 µM (GABAA R (α5β2γ2); [1]): 5 to 20%
COc1ccc2c(c1)-c1nn(C)cc1Cc1c(-c3nc(C4CCOC4)no3)ncn1-2 (stereo not shown) [Compound 126] | < 0.1 | activation at 0.1 µM (GABAA R (α5β2γ2); [1]): 20 to 50%
COc1ccc2c(c1)-c1nn(C)cc1Cc1c(-c3ncc(C)o3)ncn1-2 [Compound 286] | < 0.1 | activation at 0.1 µM (GABAA R (α5β2γ2); [1]): 5 to 20%
COc1ccc2c(c1)-c1nn(CC3CCCO3)cc1Cc1c(-c3noc(C(C)(C)OC)n3)ncn1-2 (stereo not shown) [Compound 283] | < 0.1 | activation at 0.1 µM (GABAA R (α5β2γ2); [1]): > 50%
CC(C)c1noc(-c2ncn3c2Cc2cn(C)nc2-c2cc(Cl)ccc2-3)n1 [Compound 103] | – | Ki (α5β3γ2 GABAA R; [2]): < 0.1 µM; activation at 0.1 µM (GABAA R (α5β2γ2); [3]): 5 to 20%
COCCn1cc2c(n1)-c1cc(Cl)ccc1-n1cnc(-c3nc(C4CC4)no3)c1C2 [Compound 128] | < 0.1 | activation at 0.1 µM (GABAA R (α5β2γ2); [1]): 5 to 20%
CCn1cc2c(n1)-c1cc(Cl)ccc1-n1cnc(C3=N[C@H](c4ccccc4)CO3)c1C2 [Compound 178] | < 0.1 | activation at 0.1 µM (GABAA R (α5β2γ2); [1]): 20 to 50%
Clc1ccc2c(c1)-c1nn(CC3CC3)cc1Cc1c(-c3ncco3)ncn1-2 [Compound 172] | – | Ki (α5β3γ2 GABAA R; [2]): < 0.1 µM; activation at 0.1 µM (GABAA R (α5β2γ2); [3]): 5 to 20%
CC(C)c1noc(-c2ncn3c2Cc2cn(CC4CCCO4)nc2-c2cc(Cl)ccc2-3)n1 (stereo not shown) [Compound 193] | < 0.1 | activation at 0.1 µM (GABAA R (α5β2γ2); [1]): 20 to 50%
Cn1cc2c(n1)-c1cc(Cl)ccc1-n1cnc(-c3nc(CN4CCOCC4)co3)c1C2 [Compound 276] | < 0.1 | activation at 0.1 µM (GABAA R (α5β2γ2); [1]): 20 to 50%
COc1ccc2c(c1)-c1nn(C)cc1Cc1c(-c3noc(C(C)C)n3)ncn1-2 [Compound 109] | – | Ki (α5β3γ2 GABAA R; [2]): < 0.1 µM; activation at 0.1 µM (GABAA R (α5β2γ2); [3]): 20 to 50%
COc1ccc2c(c1)-c1[nH]ncc1Cc1c(C#Cc3cccnc3)ncn1-2 [Compound 91] | < 0.1 | activation at 0.1 µM (GABAA R (α5β2γ2); [1]): 5 to 20%
Cn1cc2c(n1)-c1cc(Cl)ccc1-n1cnc(-c3noc(C4CC4)n3)c1C2 [Compound 142] | < 0.1 | activation at 0.1 µM (GABAA R (α5β2γ2); [1]): 20 to 50%
Cn1cc2c(n1)-c1cc(Cl)ccc1-n1cnc(-c3nc([C@H]4CCOC4)no3)c1C2 [Compound 253] | < 0.1 | activation at 0.1 µM (GABAA R (α5β2γ2); [1]): 5 to 20%
Cn1cc2c(n1)-c1cc(Cl)ccc1-n1cnc(-c3nc(C4COC4)no3)c1C2 [Compound 237] | < 0.1 | activation at 0.1 µM (GABAA R (α5β2γ2); [1]): 20 to 50%
CCn1cc2c(n1)-c1cc(OC)ccc1-n1cnc(-c3noc(CN(C)C)n3)c1C2 [Compound 248] | < 0.1 | activation at 0.1 µM (GABAA R (α5β2γ2); [1]): 20 to 50%
COc1ccc2c(c1)-c1nn(C)cc1Cc1c(-c3nc(COC4CCOC4)co3)ncn1-2 (stereo not shown) [Compound 273] | < 0.1 | –
COc1ccc2c(c1)-c1[nH]ncc1Cc1c(-c3ccnn3C)ncn1-2 [Compound 78] | – | Ki (α5β3γ2 GABAA R; [2]): > 1 µM
C#Cc1ncn2c1Cc1cnoc1-c1cc(OC)ccc1-2 [Compound 51] | – | Ki (α5β3γ2 GABAA R; [2]): > 1 µM
COCC(COC)OCc1coc(-c2ncn3c2Cc2cn(C)nc2-c2cc(Cl)ccc2-3)n1 [Compound 332] | < 0.1 | –
COc1ccc2c(c1)-c1nn(CC3COC3)cc1Cc1c(-c3noc(C4(OC)CC4)n3)ncn1-2 [Compound 331] | < 0.1 | –
CCn1cc2c(n1)-c1cc(Cl)ccc1-n1cnc(-c3noc(CN(C)C)n3)c1C2 [Compound 349] | < 0.1 | –
CCOC(C)(C)c1nc(-c2ncn3c2Cc2cn(C)nc2-c2cc(OC)ccc2-3)no1 [Compound 341] | < 0.1 | –
CN1C(=O)Cn2c(C3=N[C@@H](c4ccccc4)CO3)cnc2-c2ccc(Cl)cc21 [Compound 30] | – | Ki (α5β3γ2 GABAA R; [2]): > 1 µM
COc1ccc2c(c1)-c1nn(Cc3ccccc3F)cc1Cc1c(-c3cnn(-c4ccccc4)c3)ncn1-2 [Compound 75] | 0.1 to 1 | –
COc1ccc2c(c1)-c1nn(C)cc1Cc1c(-c3noc(CC4COC4)n3)ncn1-2 [Compound 366] | < 0.1 | –
COc1ccc2c(c1)-c1[nH]ncc1Cc1c(-c3cnco3)ncn1-2 [Compound 95] | < 0.1 | –

Structure (SMILES) | Ki (α5β3γ2 GABAA R) [µM] | further results
CCOC1(c2nc(-c3ncn4c3Cc3cn(C)nc3-c3cc(OC)ccc3-4)no2)CC1 [Compound 357] | < 0.1 | –
CCOC(=O)c1ncn2c1Cc1cnoc1-c1cc(OC)ccc1-2 [Compound 40] | – | Ki (α5β3γ2 GABAA R; [2]): < 0.1 µM
COc1ccc2c(c1)-c1nn(CCOC(F)(F)F)cc1Cc1c(-c3noc(C4CCOCC4)n3)ncn1-2 [Compound 327] | < 0.1 | –
COc1ccc2c(c1)-c1c(cnn1C)Cc1c(-c3nc(CN4CCOCC4)no3)ncn1-2 [Compound 329] | – | Ki (α5β3γ2 GABAA R; [2]): 0.1 to 1 µM
COc1ccc(Cn2ncc3c2-c2cc(OC)ccc2-n2cnc(C#Cc4ccnn4C)c2C3)cc1 [Compound 37] | 0.1 to 1 | –
Cn1cc2c(n1)-c1cc(Cl)ccc1-n1cnc(-c3noc(CCN4CCCC4)n3)c1C2 [Compound 385] | < 0.1 | –
COc1ccc2c(c1)-c1nn(C)cc1Cc1c(-c3noc(C4CCOCC4)n3)ncn1-2 [Compound 324] | – | Ki (α5β3γ2 GABAA R; [2]): < 0.1 µM
Clc1ccc2c(c1)-c1[nH]ncc1Cc1c(-c3cnoc3)ncn1-2 [Compound 61] | 0.1 to 1 | –
COc1ccc2c(c1)-c1nn(C)cc1Cc1c(-c3noc(COC(F)(F)F)n3)ncn1-2 [Compound 359] | < 0.1 | –
COCCn1cc2c(n1)-c1cc(OC)ccc1-n1cnc(-c3noc(C4(OC)CC4)n3)c1C2 [Compound 339] | < 0.1 | –
COc1ccc2c(c1)-c1nn(C)cc1Cc1c(-c3noc(C4(F)CCOC4)n3)ncn1-2 (stereo not shown) [Compound 356] | < 0.1 | –
COCCn1cc2c(n1)-c1cc(OC)ccc1-n1cnc(-c3noc(C4CCOCC4)n3)c1C2 [Compound 318] | < 0.1 | –
COc1ccc2c(c1)-c1[nH]ncc1Cc1c(C3=N[C@@H](c4ccccc4)CO3)ncn1-2 [Compound 15] | < 0.1 | –
COc1ccc2c(c1)-c1nn(C)cc1Cc1c(-c3nc(CN(C(C)C)C(C)C)co3)ncn1-2 [Compound 380] | < 0.1 | –
CC(C)C[C@@H]1COC(c2ncn3c2Cc2cnoc2-c2cc(Cl)ccc2-3)=N1 [Compound 68] | – | Ki (α5β3γ2 GABAA R; [2]): > 1 µM
COc1ccc2c(c1)-c1c(cnn1C)Cc1c(-c3nc(C)no3)ncn1-2 [Compound 18] | – | Ki (α5β3γ2 GABAA R; [2]): 0.1 to 1 µM
COC1(c2nc(-c3ncn4c3Cc3cn(CC5CCCO5)nc3-c3cc(Cl)ccc3-4)no2)CC1 (stereo not shown) [Compound 322] | < 0.1 | –
CC(C)c1noc(-c2ncn3c2Cc2cnn(Cc4ccccc4)c2-c2cc(Cl)ccc2-3)n1 [Compound 2] | 0.1 to 1 | –
COc1ccc2c(c1)-c1nn(Cc3cccc(F)c3)cc1Cc1c(-c3nc(C)no3)ncn1-2 [Compound 22] | < 0.1 | –
COc1ccc2c(c1)-c1nn(C)cc1Cc1c(-c3nc(C4(C)CCOCC4)no3)ncn1-2 [Compound 352] | < 0.1 | –
CCn1cc2c(n1)-c1cc(Cl)ccc1-n1cnc(C3=N[C@@H](C(C)C)CO3)c1C2 [Compound 180] | < 0.1 | –
Clc1ccc2c(c1)-c1c(cnn1Cc1ccccc1)Cc1c(C3=N[C@H](c4ccccc4)CO3)ncn1-2 [Compound 5] | 0.1 to 1 | –
COc1ccc2c(c1)-c1nn(C)cc1Cc1c(-c3noc(Cn4cccn4)n3)ncn1-2 [Compound 361] | < 0.1 | –
COCc1noc(-c2ncn3c2Cc2cn(C)nc2-c2cc(Cl)ccc2-3)n1 [Compound 235] | < 0.1 | –
COc1ccc2c(c1)-c1nn(C)cc1Cc1c(-c3nc(C(C)(C)OC)no3)ncn1-2 [Compound 335] | < 0.1 | –
C[C@@H]1COC(c2ncn3c2Cc2cnn(Cc4ccccc4)c2-c2cc(Cl)ccc2-3)=N1 [Compound 12] | – | Ki (α5β3γ2 GABAA R; [2]): 0.1 to 1 µM
COc1ccc2c(c1)-c1[nH]ncc1Cc1c(-c3cc(C(F)(F)F)nn3C)ncn1-2 [Compound 79] | 0.1 to 1 | –

— patent US20240132513A1, “BENZAZEPINE DERIVATIVES, COMPOSITIONS, AND METHODS FOR TREATING COGNITIVE IMPAIRMENT” (AGENEBIO, INC., priority 2022, published 2024)
